In ChEMBL document CHEMBL4406802, “Human disorders associated with inflammation and the evolving role of natural products to overcome” (Eur J Med Chem, 2019):
Values belong to the compound of their own block, whether it stands above or below them.

Experiments:
[1] = tested on: RAW264.7; assay: Cytotoxicity against mouse RAW264.7 cells assessed as cell viability after 24 hrs by MTT assay relative to control; format: functional
[2] = tested on: RAW264.7; assay: Antiinflammatory activity in mouse RAW264.7 cells assessed as inhibition of LPS-induced nitric oxide production after 24 hrs by Griess reagent based assay relative to control; format: functional, cell-based; conditions: RAW264.7, 24 h
[3] = target: T1, Prostaglandin G/H synthase 2 (Homo sapiens, UniProt P35354); assay: Inhibition of COX2 (unknown origin)
T1 sequence (P35354 whole entry): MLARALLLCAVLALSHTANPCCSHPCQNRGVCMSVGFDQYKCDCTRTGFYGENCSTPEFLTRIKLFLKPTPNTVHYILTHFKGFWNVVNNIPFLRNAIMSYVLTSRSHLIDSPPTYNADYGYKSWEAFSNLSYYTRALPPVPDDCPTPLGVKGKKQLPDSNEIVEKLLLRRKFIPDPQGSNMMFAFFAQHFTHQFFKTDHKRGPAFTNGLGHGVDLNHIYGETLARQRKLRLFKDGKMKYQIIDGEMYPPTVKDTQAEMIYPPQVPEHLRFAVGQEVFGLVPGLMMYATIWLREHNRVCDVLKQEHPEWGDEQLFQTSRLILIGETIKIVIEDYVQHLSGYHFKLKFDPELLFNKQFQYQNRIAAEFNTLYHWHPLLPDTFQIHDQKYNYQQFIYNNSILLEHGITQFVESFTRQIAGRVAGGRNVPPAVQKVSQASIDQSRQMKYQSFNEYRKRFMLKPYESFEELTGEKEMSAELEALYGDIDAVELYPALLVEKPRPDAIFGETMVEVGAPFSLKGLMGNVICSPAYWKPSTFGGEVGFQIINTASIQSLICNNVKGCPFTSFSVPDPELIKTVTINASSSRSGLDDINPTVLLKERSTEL

[4] = tested on: RAW264.7; assay: Antiinflammatory activity in mouse RAW264.7 cells assessed as inhibition of LPS-induced nitric oxide production at […] after 24 hrs by Griess reagent based assay relative to control; format: functional; set-up: dose or concentration left out as unconfirmed; conditions: RAW264.7, 24 h
[5] = Inhibition of TNFalpha-induced NFkappaB (unknown origin) activation expressed in mouse NIH-3T3 cells […] followed by TNFalpha addition measured after 6 hrs by luciferase reporter gene assay; format: cell-based; conditions: NIH3T3
[6] = tested on: RAW264.7; assay: Antiinflammatory activity against mouse RAW264.7 cells assessed as inhibition of LPS induced iNOS at 30 uM preincubated for 1 hr followed by LPS stimulation measured after 18 hrs relative to control; format: functional
[7] = tested on: RAW264.7; assay: Antiinflammatory activity in mouse RAW264.7 cells assessed as inhibition of LPS-induced nitric oxide production at 25 uM relative to control; format: functional
[8] = tested on: BV-2; assay: Antiinflammatory activity in mouse BV2 cells assessed as inhibition of LPS-induced nitric oxide production at 10 uM relative to control; format: functional

IC50 [2]: 16.1 µM
SMILES: C[C@@H]1O[C@@H](O[C@H]2[C@H](O[C@H]3[C@H](O[C@H]4CC[C@@]5(C)[C@@H](CC[C@]6(C)[C@@H]5CC=C5[C@@H]7C[C@]8(C)C[C@@H](OC8=O)[C@]7(C)CC[C@]56C)[C@@]4(C)CO)O[C@H](C(=O)O)[C@@H](O)[C@@H]3O)O[C@H](CO)[C@H](O)[C@@H]2OC=O)[C@H](O)[C@H](O)[C@H]1O
Activity [1]: 95.2%

IC50 [2]: 13.2 µM
SMILES: C[C@@H]1[C@H](O)CC[C@]2(C(=O)O)CC[C@]3(C)C(CC[C@@H]4[C@@]5(C)CC[C@H](O[C@@H]6O[C@H](C(=O)O)[C@@H](O)[C@H](O)[C@H]6O[C@@H]6O[C@H](CO)[C@H](O)[C@H](O)[C@H]6O[C@@H]6O[C@@H](C)[C@H](O)[C@@H](O)[C@H]6O)C(C)(C)[C@@H]5CC[C@]43C)[C@H]12 (stereo partly specified)
Activity [1]: 96.8%

IC50 [3]: 4.5 µM
SMILES: O=C(O[C@@H]1[C@@H](c2c(O)cc(O)c3c2O[C@H](c2cc(O)c(O)c(O)c2)[C@H](OC(=O)c2cc(O)c(O)c(O)c2)C3)c2c(O)cc(O)c([C@H]3c4c(O)cc(O)cc4O[C@H](c4cc(O)c(O)c(O)c4)[C@@H]3OC(=O)c3cc(O)c(O)c(O)c3)c2O[C@@H]1c1cc(O)c(O)c(O)c1)c1cc(O)c(O)c(O)c1

SMILES: CC(C)=CCOc1cc(O)c2c(=O)c3cc(OCC=C(C)C)c(OCC=C(C)C)cc3oc2c1
inhibition [4]: 81.4%

IC50 [5]: 45 µM
SMILES: C=C[C@]1(C)C[C@H](OC(=O)C(=C)CO)[C@@H](C(=C)C(=O)OC)[C@H](O)[C@H]1C(=C)CO

SMILES: CC1(C)CC[C@]2(C(=O)O[C@@H]3O[C@H](CO)[C@@H](O)[C@H](O)[C@H]3O)CC[C@]3(C)C(=CC[C@@H]4[C@@]5(C)CC[C@H](O[C@@H]6O[C@H](C(=O)O)[C@@H](O)[C@H](O)[C@H]6O)C(C)(C)[C@@H]5CC[C@]43C)[C@@H]2C1 [CHIKUSETSUSAPONIN IVA]
inhibition at 30 µM [6]: 92.8%

IC50 [3]: 450 µM
SMILES: C=C(C)[C@@H]1CC[C@]2(C)CC[C@]3(C)[C@H](CCC4[C@@]5(C)[C@H](O)C[C@H](O)C(C)(C)[C@@H]5CC[C@]43C)[C@@H]12 (stereo partly specified)

SMILES: C=C1C(=O)O[C@@H]2C[C@]3(C)C(O)CCC(C)C3(O)C[C@H]12 (stereo partly specified)
inhibition at 25 µM [7]: 37.1%

SMILES: CC1=C2C[C@H]3[C@@H](C[C@]2(C)C(O)CC1=O)OC(=O)[C@@H]3C (stereo partly specified)
inhibition at 25 µM [7]: 23.6%

IC50 [5]: 42.1 µM
SMILES: C=C1C(=O)O[C@@H]2/C=C(\CO)CC/C=C(\C)C[C@H](OC(=O)/C(=C/C)CO)[C@@H]12

IC50 [3]: 540 µM
SMILES: C=C(C)[C@@H]1CC[C@]2(C)CC[C@]3(C)[C@H](CCC4[C@@]5(C)[C@H](O)C[C@H](OC(C)=O)C(C)(C)[C@@H]5CC[C@]43C)[C@@H]12 (stereo partly specified)

IC50 [5]: 3.6 µM
SMILES: C=C[C@]1(C)C[C@H](OC(=O)C(=C)CO)[C@H]2C(=C)C(=O)O[C@@H]2[C@H]1C(=C)C=O

SMILES: COOC[C@@]1(C)CC[C@]2(C)CC[C@]3(C)[C@@H]4CCc5cc(O)c(O)cc5[C@]4(C)CC[C@@]3(C)C2C1 (stereo partly specified)
IC50 [3]: 430 µM

SMILES: CC1=C(C)[C@H]2C3=CC[C@@H]4[C@@]5(C)CC[C@H](O[C@@H]6OC[C@@H](O)[C@H](O)[C@H]6O[C@@H]6O[C@H](CO)[C@@H](O)[C@H](O)[C@H]6O)C(C)(C)[C@@H]5CC[C@@]4(C)[C@]3(C)CC[C@@]2(C(=O)O[C@@H]2O[C@H](CO)[C@@H](O)[C@H](O)[C@H]2O)CC1
inhibition at 30 µM [6]: 72%

SMILES: COc1ccc(CC2COC(=O)C2Cc2cc(C(=O)O)oc(=O)c2)cc1OC (stereo unspecified)
inhibition at 10 µM [8]: 75.5%

SMILES: COc1ccc(C(O)C2COC(=O)C2Cc2ccc(OC3O[C@H](CO)[C@@H](O)[C@H](O)[C@H]3O)c(OC)c2)cc1OC (stereo partly specified)
inhibition at 10 µM [8]: 87.8%

IC50 [3]: 460 µM
SMILES: CC(C)[C@@H]1CC[C@]2(C)[C@@H]3C(C=C4[C@@H]5CC(C)(C)C(=O)C[C@]5(C)CC[C@]42C)OC(=O)CC(O)[C@]31C (stereo partly specified)

SMILES: CC(C)=CC[C@@H]1C[C@]23C[C@@H](CC=C(C)C)C(C)(C)[C@](CC=C(C)C)(C(=O)C(C(=O)c4ccc(O)c(O)c4)=C2OC1(C)C)C3=O
inhibition [4]: 92.9%

SMILES: COc1cc(CC2C(=O)OCC2Cc2cc(OC)c(O)c(C(CO)CO)c2)ccc1OC1O[C@H](CO)[C@@H](O)[C@H](O)[C@H]1O (stereo partly specified)
inhibition at 10 µM [8]: 71.6%
